# Read-outs that look alike come from different tables or passages of the source.
# Legend:
# OPM-2 cells = test: Cell viability assay (OPM-2 cells), CCK-8; assay type: cell-based; conditions: WST, 5% FBS, read-out: OPM2 (WST, 5% FBS)
# Method: Cell Viability Assay (OPM-2 Cells)
# OPM-2 cells were obtained from Deutsche Sammlung von Mikroorganismen und Zellkulturen GmbH (DSMZ). […]
# The effect of representative Compounds of the Disclosure on cell viability was determined using Cell Counting Kit-8 (CCK-8) assay (Shanghai Life iLab Bio Technology) according to the manufacturer's instructions. Each tested compound was serially diluted in culture medium, 100 μL of the compound dilution was added into 96-well plates. 100 μL of an OPM-2 cell suspension (20000 cells/well) in culture medium were seeded into the corresponding well of the plate and the cells were incubated at 37° C. in an atmosphere of 5% CO2 for 24 hours. In the next day, 20 μL of CCK-8 solution was added to each well of the plate and incubated for 4 hours.
# The plates were read at 450 nm on the microplate spectrophotometer (SpectraMax plus 384, Molecular devices). The readings were normalized to the vehicle cells, and the IC50 was calculated by nonlinear regression analysis using GraphPad Prism 6 software.
# NCI-H929 cells = test: Cell viability assay (NCI-H929 cells), CCK-8; assay type: cell-based; conditions: WST, 5% FBS
# Method: Cell Viability Assay (NCI-H929 Cells)
# NCI-H929 cells were obtained from American Type Culture Collection (ATCC). Cells were maintained in the recommended culture medium (RPMI 1640) with 10% FBS and 0.05 mM BME at 37° C. and an atmosphere of 5% CO2.
# The effect of Compounds on cell viability was determined using Cell Counting Kit-8 (CCK-8) assay according to the manufacturer's instructions. 95 μL of NCI-H929 cell suspension (20000 cells/well) in culture medium were seeded into 96-well plates and cultured 4 hrs. Each tested compound was serially diluted in DMSO, then 5 μL of the compound or DMSO was diluted in 95 μL medium once more. At last, 5 μL of the compound dilution was added to the corresponding well of the cell plate. After the addition of the tested compound, the cells were incubated at 37° C. in an atmosphere of 5% CO2 for 24 hrs. At the end, 10 μL of CCK-8 solution was added to each well of the plate and incubated for 1-4 hours. The plates were read at 450 nm on the microplate reader (BioTek Synergy 1MF). The readings were normalized to the vehicle cells, and the IC50 was calculated by nonlinear regression analysis using GraphPad Prism 6 software.
# [1] = target: T1, Mcl-1 protein (residues 171-323) (Homo sapiens, UniProt Q07820); test: Inhibition of Mcl-1 by fluorescence polarization (FP) competitive binding assay; conditions: FAM-Bid tracer 2 nM, Mcl-1 20 nM, 30 min
# T1 construct: Tag-free Mcl-1 protein (residues 171-323) was used in the FP assay
# T1 sequence (Q07820 171-323): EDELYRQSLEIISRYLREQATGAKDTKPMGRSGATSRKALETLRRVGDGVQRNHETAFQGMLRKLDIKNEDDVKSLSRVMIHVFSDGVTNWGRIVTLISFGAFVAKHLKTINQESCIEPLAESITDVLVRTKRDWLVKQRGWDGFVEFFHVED
# Method: Inhibition of Mcl-1 by Fluorescence Polarization (FP) Assay.
# The method used a fluorescein labelled peptide (FAM-Bid) which binds to the Mcl-1 protein leading to an increased anisotropy measured in milli-polarization (mP) values using a plate reader.
# A 10-points serial dilution of each compound was prepared in DMSO and 5 μL solution was transferred into flat bottomed, 96-well back plate (final DMSO concentration 5%). 120 μL of Buffer (PBS, 0.01% BGG (Sigma Cat. #SRE0011), 0.01% Triton X-100), containing the Fluorescein labelled peptide (Final concentration 2 nM) and Mcl-1 protein (final concentration 20 nM) was then added. […] 10-points dose response curves were plotted with GraphPad software using Sigmoidal Dose-Response Model and the IC50 values were determined by nonlinear regression fitting of the competition curves.
IC50 (NCI-H929 cells; 24 h) [nM],IC50 [1] [nM],"IC50 (NCI-H929 cells; Homo sapiens, NCI-H929, 24 h) [nM]",SMILES,IC50 (OPM-2 cells; 24 h) [nM],"IC50 (OPM-2 cells; Homo sapiens, OPM-2, 24 h) [nM]"
63,,,"Cn1nc2cc1CSc1cc(c3ccccc3c1)OCCCc1c(C(=O)O)n(C)c3c(c(Cl)ccc13)-c1c(nn3c1CCC3)CSC2 (atropisomer, axis not shown) [Cpd. No. 52, (R)-(Z)-1^6-chloro-1^1,6^1-dimethyl-2^5,2^6-dihydro-1^1H,2^4H,6^1H-10-oxa-4,8-dithia-1(7,3)-indola-2(3,2)-pyrrolo[1,2-b]pyrazola-6(3,5)-pyrazola-9(3,1)-naphthalenacyclotridecaphane-1^2-carboxylic acid]",353,
,20,66,"Cc1c2c(nn1C)CN(CCO)Cc1cc(n(C)n1)CSc1cc(c3ccccc3c1)OCCCc1c(C(=O)O)n(C)c3c-2c(Cl)ccc13 [compound 50, (Z)-1^6-chloro-4-(2-hydroxyethyl)-1^1,2^1,2^5,6^1-tetramethyl-1^1H,2^1H,6^1H-10-oxa-8-thia-4-aza-1(7,3)-indola-2(4,3), 6(3,5)-dipyrazola-9(3,1)-naphthalenacyclotridecaphane-1^2-carboxylic acid]",,388
,10.5,1970,"Cc1nc2oc1CSc1cc(c3ccccc3c1)OCCCc1c(C(=O)O)n(C)c3c(c(Cl)ccc13)-c1c(nn3c1CCC3)CSC2 [compound 10, 1^6-chloro-1^1,6^4-dimethyl-2^5,2^6-dihydro-1^1H,2^4H-10-oxa-4,8-dithia-6(2,5)-oxazola-1(7,3)-indola-2(3,2)-pyrrolo[1,2-naphthalenacyclotridecaphane-b]pyrazola-9(3,1)-1^2-carboxylic acid]",,8810
,10.9,81,"Cn1nc2cc1CSc1cc(c3ccccc3c1)OCCCc1c(C(=O)O)n(C)c3c(c(Cl)ccc13)-c1c(nn3c1COCC3)CSC2 [compound 12, (Z)-1^6-chloro-1^1,6^1-dimethyl-2^6,2^7-dihydro-1^1H,2^4H,6^1H-10-oxa-4,8-dithia-2(3,2)-pyrazolo[5,1-c][1,4]oxazina-1(7,3)-indola-6(3,5)-pyrazola-9(3,1)-naphthalenacyclotridecaphane-1^2-carboxylic acid]",,532
,15.2,49,"Cn1nc2cc1CSc1cc(c3ccccc3c1)OCCCc1c(C(=O)O)n(C)c3c(c(Cl)ccc13)-c1c(nn3c1CCCC3)CSC2 [compound 20, (Z)-1^6-chloro-1^1,6^1-dimethyl-2^4,2^5,2^6,2^7-tetrahydro-1^1H,6^1H-10-oxa-4,8-dithia-2(3,2)-pyrazolo[1,5-a]pyridina-1(7,3)-indola-6(3,5)-pyrazola-9(3,1)-naphthalenacyclotridecaphane-1^2-carboxylic acid]",,174
,15.9,55,"Cn1nc2cc1CSc1cc(c3ccc(F)cc3c1)OCCCc1c(C(=O)O)n(C)c3c(c(Cl)ccc13)-c1c(nn3c1CCCCC3)CSC2 [compound 28, (Z)-1^6-chloro-9^6-fluoro-1^1,6^1dimethyl-2^5,2^6,2^7,2^8-tetrahydro-1^1H,2^4H,6^1H-10-oxa-4,8-dithia-2(3,2)-pyrazolo[1,5-a]azepina-1(7,3)-indola-6(3,5)-pyrazola-9(3,1)-naphthalenacyclotridecaphane-1^2-carboxylic acid]",,184
,12,366,"Cn1nc2cc1CSc1cc(c3ccc(F)cc3c1)OCCCc1c(C(=O)O)n(C)c3c(c(Cl)ccc13)-c1c(nn3c1CCC3)CN(S(=O)(=O)Cc1ccccc1)C2 [compound 41, (Z)-4-(benzylsulfonyl)-1^6-chloro-9^6-fluoro-1,6^1-dimethyl-2^5,2^6-dihydro-1^1H,2^4H,6^1H-10-oxa-8-thia-4-aza-1(7,3)-indola-2(3,2)-pyrrolo[1,2-b]pyrazola-6(3,5)-pyrazola-9(3,1)-naphthalenacyclotridecaphane-1^2-carboxylic acid]",,327
,12,361,"Cn1nc2cc1CSc1cc(cc(C(F)(F)F)c1)OCCCc1c(C(=O)O)n(C)c3c(c(Cl)ccc13)-c1c(nn3c1COCC3)CSC2 [Cpd. No. 33, (Z)-1^6-chloro-1^1,6^1-dimethyl-9^5-(trifluoromethyl)-2^6,2^7-dihydro-11H,2^4H,6^1H-10-oxa-4,8-dithia-2(3,2)-pyrazolo[5,1-c][1,4]oxazina-1(7,3)-indola-6(3,5)-pyrazola-9(1,3)-benzenacyclotridecaphane-1^2-carboxylic acid]",,965
,14.9,4970,"Cn1nc2cc1CSc1cc(c3ccccc3c1)OCCCc1c(C(=O)O)n(C)c3c(c(Cl)ccc13)-c1c(nn3c1CN(S(C)(=O)=O)CC3)CSC2 [compound 25, (Z)-1^6-chloro-1^1,6^1-dimethyl-2^5-(methylsulfonyl)-2^4,2^5,2^6,2^7-tetrahydro-1^1H,6^1H-10-oxa-4,8-dithia-2(3,2)-pyrazolo[1,5-a]pyrazina-1(7,3)-indola-6(3,5)-pyrazola-9(3,1)-naphthalenacyclotridecaphane-1^2-carboxylic acid]",,9050
123,15,,"Cn1nc2cc1CSc1cc(c3ccccc3c1)OCCCc1c(C(=O)O)n(C)c3c(c(Cl)ccc13)-c1c(nn3c1CCC3)CSC2 [compound 1, (Z)-1^6-chloro-1^1,6^1-dimethyl-2^5,2^6-dihydro-1^1H,2^4H,6^1H-10-oxa-4,8-dithia-1(7,3)-indola-2(3,2)-pyrrolo[1,2-b]pyrazola-6(3,5)-pyrazola-9(3,1)-naphthalenacyclotridecaphane-1^2-carboxylic acid]",437,
,14,287,"Cn1c(C(=O)O)c2c3ccc(Cl)c(c31)-c1c(nn3c1CCC3)CSCc1coc(n1)CSc1cc(c3ccccc3c1)OCCC2 [compound 2, (Z)-1^6-chloro-1^1-methyl-2^5,2^6-dihydro-1^1H,2^4H-10-oxa-4,8-dithia-6(4,2)-oxazola-1(7,3)-indola-2(3,2)-pyrrolo[1,2-b]pyrazola-9(3,1)-naphthalenacyclotridecaphane-1^2-carboxylic acid]",,1140
,13,411,"Cn1nc2cc1CSc1cc(c3ccccc3c1)OCCCc1c(C(=O)O)n(C)c3c(c(Cl)ccc13)-c1c(nn3c1CCC3)CS(=O)(=O)C2 [compound 9, (Z)-1^6-chloro-1^1,6^1-dimethyl-2^5,2^6-dihydro-1‘H,2^4H,6^1H-10-oxa-4,8-dithia-1(7,3)-indola-2(3,2)-pyrrolo[1,2-b]pyrazola-6(3,5)-pyrazola-9(3,1)-naphthalenacyclotridecaphane-1^2-carboxylic acid 4,4-dioxide]",,1170
,19.1,,"Cn1c(C(=O)O)c2c3ccc(Cl)c(c31)-c1c(nn3c1CCC3)CSCC1=NC=C(CSc3cc(c4ccccc4c3)OCCC2)S1 [compound 4, 1^6-chloro-1^1methyl-2^5,2^6-dihydro-1^1H,2^4H-10-oxa-4,8-dithia-6(2,5)-thiazola-1(7,3)-indola-2(3,2)-pyrrolo[1,2-b]pyrazola-9(3,1)-naphthalenacyclotridecaphane-1^2-carboxylic acid]",,5300
4400,,,"Cn1nc2cc1CSc1cc(c3ccccc3c1)OCCCc1c(C(=O)O)n(C)c3c(c(Cl)ccc13)-c1c(nn3c1CCC3)CSC2 (atropisomer, axis not shown) [Cpd. No. 53, (S)-(Z)-1^6-chloro-1^1,6^1-dimethyl-2^5,2^6-dihydro-1^1H,2^4H,6^1H-10-oxa-4,8-dithia-1(7,3)-indola-2(3,2)-pyrrolo[1,2-b]pyrazola-6(3,5)-pyrazola-9(3,1)-naphthalenacyclotridecaphane-1^2-carboxylic acid]",5720,
